Experimental data from US8507408B2 (Dow Global Technologies LLC, priority 2010, dated 2013).
In brackets after ≈: the same amount, converted by molar mass. Like-named read-outs stand apart in the source and are kept apart here.

What was measured:
Cs + Ck + Nc = test: Algal efficacy on dry paint film (Modified ASTM 5589); format: cell-based, Chlorella sp., Chlorella kessleri, and Nostoc commune; conditions: for MIC: Nostoc commune, total actives in paint, read-out: Total conc (minimum inhibitory concentration chosen for SI)
Method: (§1) A single biocide or blend of biocides was post added into white acrylic latex paint free of biocides to give a maximum total active ingredient/s concentration tested. This paint was then diluted with a biocide free acrylic latex paint to give targeted concentrations for the testing. Depending on the type of biocide blends tested, the total biocides concentrations varies from 400 to 3300 ppm. After biocides addition or dilution, each sample was hand mixed for at least a minute until uniformity was achieved. Each of the paint samples as well as a control sample (containing no biocide) were used to prepare films on black plastic-vinyl chloride/acetate copolymer panels (Leneta Company, Mahwah, N.J.) using a 0.0762 mm (3 mil) bird bar applicator. The panels were thoroughly dried for at least 2 days avoiding direct exposure to sunlight. Square discs (0.5 inch^2; 1.27 cm^2) were cut out from each panel and were used as the substrate for fungal and algal efficacy tests. This sample size allowed for an agar border when the sample disc was placed into the well of the test plate. Each sample was tested in duplicate.
(§2) The appropriate media (BOLD'S 3N for Chlorophytes, BG-11 for Cyanobacteria, and PDA for fungi) were used to support microbial growth. The test plates were maintained at room temp (25° C.-26° C.), in a cycled light-dark environment, for four weeks for algae. Plates for fungal challenge tests were maintained at 30° C. for four weeks. At the end of the incubation period the samples were scored for percent area covered by visible microbial growth.
(§3) ASTM 5589 is a standard accelerated test method for determining resistance of various coatings (including paints) to algal defacement. To accommodate for high-throughput screening, this method was scaled down from petri plates to 6-well plates. A single coupon was placed with a pair of sterile forceps at the center of the agar plug (on top) with the painted surface facing upwards. Algal inoculums were prepared by mixing equal concentrations (approximately 1×10^6 cfu/ml) and equal volumes (depending on number of samples to be inoculated) of like growing organisms.
(§4) In this synergy study, three pool of mixed algae were prepared as the test inoculum, Gloeocapsa sp. and Oscillatoria sp. a mix of cyanobacteria grown on BG-11 media; Chlorella sp., Chlorella kessleri, and Nostoc commune are unicellular chlorphytes that were mixed and grown on Bold media; Trentepohlia aurea, Tretepohlia odorata, and Calotrix parientina are filamentous algae that were mixed and grown on Bold media.
(§5) Each well that contained a tested coupon was inoculated with 400 μl of organism mixture (approximately 1×10^6 cfu/ml) making sure that the whole surface (paint film as well as the agar surrounding it) was evenly covered. The plates were incubated at room temp (25° C.-26° C.) with cyclic exposure to light (OTT-Lite model #OTL4012P, 40 Watt, 26 KLumen) and dark phases, for a period of four weeks. The total area covered was evaluated at the end of each week according to percent area covered in 5% increments.
(§6) The SI is calculated based on F. C. Kull et.
(§7) NE=no end point at the concentration tested that will meet the percent inhibition criteria set in each SI calculation.

Cp + To + Ta = test: as above; format: cell-based; conditions: for Total conc (minimum inhibitory concentration chosen for SI): total actives in paint
Method: as §1, §2, §3, §4, §5, §6, §7

Gs + Os = test: as above; format: cell-based, Gloeocapsa sp. and Oscillatoria sp.; conditions: for MIC: total actives in paint, read-out: Total conc (minimum inhibitory concentration chosen for SI)
Method: as §1, §2, §3, §4, §5, §6, §7

An + Pf = test: Fungal efficacy on dry paint film (Modified ASTM 5590); format: cell-based, Aspergillus niger, Penicillium funiculosum; conditions: for MIC: total actives in paint, read-out: Total conc (minimum inhibitory concentration chosen for SI)
Method: as §1, §2
(§8) ASTM 5590 is a standard accelerated test method for determining resistance of various coatings (including paints) to fungal defacement. To accommodate for high-throughput screening, this method was scaled down from petri plates to 6-well plates. To set up the test, an agar plug was placed at the bottom of each well of the sterile 6-well plate. A single coupon was placed with a pair of sterile forceps at the center of the agar plug (on top) with the painted surface facing upwards. Fungal inoculums were prepared by mixing equal concentrations (approximately 1×10^6 cfu/ml) and equal volumes (depending on number of samples to be tested) of like growing organisms. For this synergy study, three pools of mixed fungi were prepared as the test inoculum. Cladosporium herbarum was mixed with Trichoderma viride, Aspergillus niger was mixed with Penicillium funiculosum and Alternaria alternata was mixed with Aureobasidium pullulans. Each well was inoculated with 400 microliter of organism mixture (approximately 1×10^6 cfu/ml) making sure that the whole surface (paint film as well as the agar surrounding it) was evenly covered. The plates were incubated at 30° C. in presence of moisture, for a period of four weeks. The total percent area covered was evaluated and recorded at the end of each week and recorded in increments of 5%.
as §6, §7

AaTv = test: as above; format: cell-based, Alternaria alternata, Trichoderma viride; conditions: for % Inhibition: at the total conc; for MIC: total actives in paint, read-out: Total conc (minimum inhibitory concentration chosen for SI)
ApCh = test: as above; format: cell-based, Aureobasidium pullulans, Cladosporium herbarum; conditions: for % Inhibition: at the total conc; for MIC: total actives in paint, read-out: Total conc (minimum inhibitory concentration chosen for SI)
Method: as §1, §2
as §8, with “Each well was inoculated with 400 microliter of organism mixture (approximately 1×10^6 cfu/ml) making sure that the whole surface (paint film as well as the agar surrounding it) was evenly covered. The plates were incubated at 30° C. in presence of moisture, for a period of four weeks.” left out
The SI is calculated based on F. C. […]

Aa + Ap = test: as above; format: cell-based, Alternaria alternata, Aureobasidium pullulans; conditions: four weeks
Method: as §1, §2, §8, §6

TV + Ch = test: as above; format: cell-based, Trichoderma viride, Cladosporium herbarum; conditions: four weeks
Method: as §1, §2, §8, §6

[1] = system: green algae (Selenastrum capricornutum); conditions: cited from earlier work; for EbC50: median effective concentration for biomass
[2] = system: marine algae (Skeletonema costatum); conditions: cited from earlier work
[3] = system: diatom (Navicula pelliculosa); conditions: 7 day; cited from earlier work
[4] = system: blue-green algae (Anabaena flos-aquae); conditions: 7 day; cited from earlier work
[5] = cited from earlier work
[6] = Zinc Glyphosate with DCOIT study
[7] = Zinc Glyphosate with DCOIT study, at the total conc
[8] = Zinc Glyphosate with OIT study, at the total conc
[9] = Zinc Glyphosate with OIT study, NE=no end point at the concentration tested

In the case of `CCCCCCCCn1sc(Cl)c(Cl)c1=O` [DCOIT, 4,5-dichloro-2-n-octyl-4-isothiazolin-3-one], the MIC (Cs + Ck + Nc; [6]) was 575 µg/mL, the MIC (Cs + Ck + Nc; Zinc Glyphosate with OIT study) was 900 µg/mL and the “% Inhibition” value (Cs + Ck + Nc; [7]) was 20%. The “% Inhibition” value (Cs + Ck + Nc; [8]) was 100%, the “% Inhibition” value (Cp + To + Ta; [7]) was 80% and the “Total conc (minimum inhibitory concentration chosen for SI)” value (Cp + To + Ta; [6]) was 575 ppm. For the same compound, the “% Inhibition” value (Cp + To + Ta; [8]) was 80%, the “Total conc (minimum inhibitory concentration chosen for SI)” value (Cp + To + Ta; Zinc Glyphosate with OIT study) was 1350 ppm and the “% Inhibition” value (Gs + Os; [7]) was 60%. For the same compound, the MIC (Gs + Os; [6]) was 826 µg/mL, the “% Inhibition” value (Gs + Os; [8]) was 80% and the MIC (Gs + Os; [9]) was 900 µg/mL. The “% Inhibition” value (An + Pf; [7]) was 80%, the MIC (An + Pf; [6]) was 1150 µg/mL and the “% Inhibition” value (An + Pf; [8]) was 50%. For the same compound, the MIC (An + Pf; Zinc Glyphosate with OIT study) was 450 µg/mL, the “% Inhibition” value (AaTv; [6]) was 40% and the MIC (AaTv; [6]) was 288 µg/mL (≈ 1020 µM). The “% Inhibition” value (AaTv; Zinc Glyphosate with OIT study) was 100%, the MIC (AaTv; [9]) was 450 µg/mL (≈ 1590 µM) and the “% Inhibition” value (ApCh; [6]) was 40%. The MIC (ApCh; [6]) was 575 µg/mL, the “% Inhibition” value (ApCh; Zinc Glyphosate with OIT study) was 40% and the MIC (ApCh; [9]) was 900 µg/mL.

In the case of `O=C(O)CNCP(=O)(O)O` [Glyphosate, N-(phosphonomethyl)glycine], the “% Inhibition” value (Cs + Ck + Nc; 750 ppm in paint, four weeks) was 37.5%, the “% Inhibition” value (Cs + Ck + Nc; 1500 ppm in paint, four weeks) was 60% and the “% Inhibition” value (Cs + Ck + Nc; 2500 ppm in paint, four weeks) was 80%. The “% Inhibition” value (Cp + To + Ta; 750 ppm in paint, four weeks) was 0%, the “% Inhibition” value (Cp + To + Ta; 1500 ppm in paint, four weeks) was 10% and the “% Inhibition” value (Cp + To + Ta; 2500 ppm in paint, four weeks) was 7.5%. For the same compound, the “% Inhibition” value (Gs + Os; 750 ppm in paint, four weeks) was 15%, the “% Inhibition” value (Gs + Os; 1500 ppm in paint, four weeks) was 72.5% and the “% Inhibition” value (Gs + Os; 2500 ppm in paint, four weeks) was 90%. For the same compound, the “% Inhibition” value (Aa + Ap; 750 ppm in paint) was 7.5%, the “% Inhibition” value (Aa + Ap; 1500 ppm in paint) was 20% and the “% Inhibition” value (Aa + Ap; 2500 ppm in paint) was 67.5%. For the same compound, the “% Inhibition” value (An + Pf; 750 ppm in paint, four weeks) was 0%, the “% Inhibition” value (An + Pf; 1500 ppm in paint, four weeks) was 5% and the “% Inhibition” value (An + Pf; 2500 ppm in paint, four weeks) was 10%. For the same compound, the “% Inhibition” value (TV + Ch; 750 ppm in paint) was 2.5%, the “% Inhibition” value (TV + Ch; 1500 ppm in paint) was 50% and the “% Inhibition” value (TV + Ch; 2500 ppm in paint) was 72.5%. For the same compound, the EbC50 ([1]; 72 hr) was 485 mg/L, the ErC50 ([1]; 72 hr, median effective concentration for growth rate) was 460 mg/L and the EbC50 ([1]; 7 day) was 13.8 mg/L. For the same compound, the EC50 ([2]; 96 hr) was 1.3 µg/mL (≈ 7.69 µM), the EC50 ([2]; 7 day) was 0.64 µg/mL (≈ 3.79 µM) and the EC50 [3] was 42 µg/mL (≈ 248 µM). The EC50 [4] was 15 µg/mL (≈ 88.7 µM) and the solubility in water [5] was “relatively high”.

With Zinc Glyphosate the “% Inhibition” value (Gs + Os; 750 ppm in paint, four weeks) was 15%, the “% Inhibition” value (Gs + Os; 1500 ppm in paint, four weeks) was 72.5% and the “% Inhibition” value (Gs + Os; 2500 ppm in paint, four weeks) was 90%. The “% Inhibition” value (Aa + Ap; 1500 ppm in paint) was 47.5%, the “% Inhibition” value (Aa + Ap; 2500 ppm in paint) was 70% and the “% Inhibition” value (An + Pf; 750 ppm in paint, four weeks) was 20%. For the same compound, the “% Inhibition” value (An + Pf; 1500 ppm in paint, four weeks) was 27.5%, the “% Inhibition” value (An + Pf; 2500 ppm in paint, four weeks) was 30% and the “% Inhibition” value (TV + Ch; 750 ppm in paint) was 50%. For the same compound, the “% Inhibition” value (TV + Ch; 1500 ppm in paint) was 75% and the “% Inhibition” value (TV + Ch; 2500 ppm in paint) was 90%.
